Data from patent publication US12490739B2, “Synergistically effective fungicide composition comprising choline phosphonate and at least one additional fungicide” (BELCHIM CROP PROTECTION NV, priority 2019, dated 2025).

How the values were obtained:
Assay type in all cases: in vivo
Sphaerotheca fuliginea = assay: Example 8 field trial, cucumber (Cucumis sativus) infected with powdery mildew, Spain; settings: 7 DA-A3, BBCH 63, 500 g a.c./ha
Venturia inaequalis [1] = assay: Example 15 field trial, apple (Malus domestica var. Gala) infected with apple scab, France; settings: PESINC, 200 leaves, 1200 g a.c./ha
Podosphaera leucotricha = assay: Example 14 field trials, apple (Malus domestica var. Gold Rush, var. Morgenduft Dallago) infected with powdery mildew; settings: 840 g a.c./ha
Venturia inaequalis [2] = assay: Example 4 field trials, apple (Malus domestica var. Golden delicious) infected with scab; settings: 250 g a.c./ha
Plasmopara viticola = assay: Example 1 field trial, Vitis vinifera var. Chardonnay infected with downy mildew, South Africa; settings: 120 g a.c./ha
Peronospora cumensis = assay: Example 2 field trial, cucumber (Cucumis sativus) infected with downy mildew, France; settings: PESSEV, 150 g a.c./ha

SMILES: OCC1(O)OC[C@@H](O)[C@H](O)[C@@H]1O (stereo partly drawn) [TAG, (3S,4S,5R)-2-(hydroxymethyl)oxane-2,3,4,5-tetrol]
- TAG f.e. (%) (Sphaerotheca fuliginea; PESINC): 83.9%
- TAG f.e. (%) (Sphaerotheca fuliginea; PESSEV): 93.2%
- TAG f.e. (%) (Venturia inaequalis [1]; 28 DA-A12, BBCH 73): 28.1%
- TAG f.e. (%) (Venturia inaequalis [1]; 56 DA-A12, BBCH 75): 28.0%
- TAG f.e. (%) (Podosphaera leucotricha; PESINC, location 1 (France), 20 shoots, 7 DA-A5, BBCH 71): 26.7%
- TAG f.e. (%) (Podosphaera leucotricha; PESINC, location 1 (France), 100 leaves, 5 DA-A8, BBCH 74): 18.8%
- TAG f.e. (%) (Podosphaera leucotricha; PESINC, location 1 (France), 100 leaves, 6 DA-A6, BBCH 74): 14.5%
- TAG f.e. (%) (Podosphaera leucotricha; PESINC, location 1 (France), 100 leaves, 15 DA-A8, BBCH 76): 8.7%
- TAG f.e. (%) (Podosphaera leucotricha; PESINC, location 1, 20 shoots, 7 DA-A5, BBCH 71, second listing (r40)): 0.6%
- TAG f.e. (%) (Podosphaera leucotricha; PESINC, location 1, 100 leaves, 5 DA-A8, BBCH 74, second listing (r52)): 2.4%
- TAG f.e. (%) (Podosphaera leucotricha; PESINC, location 1, 100 leaves, 6 DA-A6, BBCH 74, second listing (r46)): 36.4%
- TAG f.e. (%) (Podosphaera leucotricha; PESINC, location 1, 100 leaves, 15 DA-A8, BBCH 76, second listing (r58)): 5.9%
- TAG f.e. (%) (Podosphaera leucotricha; PESSEV, location 1 (France), 100 leaves, 5 DA-A8, BBCH 74): 38.4%
- TAG f.e. (%) (Podosphaera leucotricha; PESSEV, location 1 (France), 100 leaves, 6 DA-A6, BBCH 74): 15.6%
- TAG f.e. (%) (Podosphaera leucotricha; PESSEV, location 1 (France), 100 leaves, 15 DA-A8, BBCH 76): 2.6%
- TAG f.e. (%) (Podosphaera leucotricha; PESSEV, location 1, 100 leaves, 5 DA-A8, BBCH 74, second listing (r49)): 1.6%
- TAG f.e. (%) (Podosphaera leucotricha; PESSEV, location 1, 100 leaves, 6 DA-A6, BBCH 74, second listing (r43)): 44.9%
- TAG f.e. (%) (Podosphaera leucotricha; PESSEV, location 1, 100 leaves, 15 DA-A8, BBCH 76, second listing (r55)): 3.5%

SMILES: N#Cc1sc2c(=O)c3ccccc3c(=O)c=2sc1C#N [DIT, 5,10-dioxobenzo[g][1,4]benzodithiine-2,3-dicarbonitrile]
- DIT f.e. (%) (Venturia inaequalis [2]; PESINC, location 1 (France), 1 DA-A6, BBCH 74): 19.8%
- DIT f.e. (%) (Venturia inaequalis [2]; PESINC, location 1 (France), 6 DA-A4, BBCH 72): 38.6%
- DIT f.e. (%) (Venturia inaequalis [2]; PESINC, location 2 (United Kingdom), 5 DA-A8, BBCH 74): 59.0%
- DIT f.e. (%) (Venturia inaequalis [2]; PESINC, location 3 (Belgium), 31 DA-A9, BBCH 73): 51.8%
- DIT f.e. (%) (Venturia inaequalis [2]; PESINC, location 3 (Belgium), 80 DA-A9, BBCH 73): 42.6%
- DIT f.e. (%) (Venturia inaequalis [2]; PESSEV, location 1 (France), 1 DA-A6, BBCH 74): 63.0%
- DIT f.e. (%) (Venturia inaequalis [2]; PESSEV, location 1 (France), 6 DA-A4, BBCH 72): 75.4%

SMILES: COC(=O)CC(NC(=O)[C@@H](NC(=O)OC(C)C)C(C)C)c1ccc(Cl)cc1 (stereo partly drawn) [VAL, methyl 3-(4-chlorophenyl)-3-[[(2S)-3-methyl-2-(propan-2-yloxycarbonylamino)butanoyl]amino]propanoate]
- VAL f.e. (%) (Plasmopara viticola; PESINC, 50 bunches, 14 DA-A3, BBCH 77): 64.0%
- VAL f.e. (%) (Plasmopara viticola; PESINC, 50 bunches, 14 DA-A5, BBCH 83): 53.6%
- VAL f.e. (%) (Plasmopara viticola; PESINC, 100 leaves, 14 DA-A3, BBCH 77): 57.6%
- VAL f.e. (%) (Plasmopara viticola; PESSEV, 50 bunches, 14 DA-A3, BBCH 77): 75.9%
- VAL f.e. (%) (Plasmopara viticola; PESSEV, 50 bunches, 14 DA-A5, BBCH 83): 73.3%
- VAL f.e. (%) (Plasmopara viticola; PESSEV, 100 leaves, 14 DA-A3, BBCH 77): 66.9%
- VAL f.e. (%) (Peronospora cumensis; 6 DA-A2, BBCH 19): 31.7%
- VAL f.e. (%) (Peronospora cumensis; 7 DA-A1, BBCH 16): 43.6%
- VAL f.e. (%) (Peronospora cumensis; 7 DA-A4, BBCH 19): 62.1%
- VAL f.e. (%) (Peronospora cumensis; 8 DA-A3, BBCH 19): 31.7%
- VAL f.e. (%) (Peronospora cumensis; 14 DA-A4, BBCH 19): 27.0%
